Results reported in patent US10583109B2, “Use of silver(I) complexes as anticancer agents” (University of Johannesburg, priority 2012, dated 2020).

Experiments:
[1] = system: SNO-oesophageal cancer cells; format: cell-based; settings: 100 μM, 24 hour treatment
Procedure: The SNO-oesophageal cancer cells were cultured in Dulbecco's modified Eagles medium (DMEM) containing 10% Foetal bovine serum (FBS), 0.8% Penicillin/Streptomycin/Fungizone and 0.2% Gentamycin. The SNO-oesophageal cancer cells were subcultured every 48 hours and incubated at 37° C. under a 5% CO2 humidified atmosphere. After 48 hours the cells were trypsinized and plated (6×10^5 cells) in 3.5 cm culture dishes and left to cultivate for 24 hours.
MCF-7 breast cancer cells, in terms of a first study, and SNO-oesophageal cancer cells, in terms of a second study, were treated with 10 μM silverthiocyanide complexes (1)-(5), as well as their ligands (Ligand-1 to Ligand-5) over a 24 hour incubation period. These complexes were dissolved in 0.1% Dimethyl sulfoxide (DMSO). The DMSO alone (vehicle control) decreased the viability with approximately 2.2%, signifying its minimal influence in cancer cell growth. For comparative purposes, 100 μM Cisplatin (CDDP) and 25% H2O2 was included which respectively serves as the apoptotic and necrotic controls. Cisplatin was prepared in 0.9% NaCl, whereas H2O2 was prepared in the supplemented DMEM media right before treatment. An untreated negative control (UT) was exposed to similar conditions as the treated cells and monitored during the experimental study.
An AlamarBlue® Viability® (Serotec, UK) assay was performed after a 24 hour treatment with complexes (1)-(5) and their ligands (Ligand-1 to Ligand-5, respectively) to evaluate the cellular effect the instant complexes (and their ligands) may have on the cancer cells. AlamarBlue® dye (10%) was incubated with trypsinized cells over a 2 hour period before the fluorescence was measured with a Synergy HT Multi-Detection Microplate reader (BioTek, Winooski, Vt.) at wavelengths of 530 nm and (excitation) and 590 nm (emission). This fluorescent based assay in particular involves the metabolic oxidation-reduction reaction of resazurin to a reduced resorufin product that is directly proportional to the amount of viable cells.
The percentage cellular viability of differentially treated SNO-oesophageal cells was determined using an AlamarBlue® assay, as depicted in FIG. 7. Different controls (grey) were included: untreated, 0.1% DMSO solvent and apoptotic control (100 μM Cisplatin) as well as the corresponding ligands (10 μM) of complexes (1)-(5). Cells were treated with silver(I) thiocyanate phosphine complexes (1)-(5) at a concentration of 10 μM. The percentages were calculated with respect to the control and error bars were constructed on the basis of Standard Error of the Mean (SEM) where n=9 except for the ligand of compound 4 (n=8). The P-values (*P<0.001 and **P<0.0001) were determined with the Student's T-test to evaluate the significant difference.
The cells were thereafter treated with complexes (6)-(9) at a concentration of 10 μM prepared in 0.1% DMSO. Treatment with either 25% H2O2 or 100 μM CDDP served as controls for necrosis and apoptosis respectively. The CDDP was prepared in 0.9% NaCl while the H2O2 was diluted with supplemented DMEM prior to treatment.
A suspension (100 μl) of the differentially treated cells was added in triplicate to a microtiter plate. In the dark, AlamarBlue® dye (10 μl) was added to each well containing a sample, followed by a 2 hour incubation in a 5% CO2 incubator at 37° C. The fluorescence was read on a Synergy HT Multi-Detection Microplate reader at a wavelength of 530 nm and (excitation) and 590 nm (emission). In terms of this study, the apoptotic control CDDP (100 μM) was included. Error bars represent the standard error of the mean (SEM) where n=9. The Student's T-test was used to determine the significant difference of the treatments with respect to DMSO (P*<0.05 and P**<0.001). The silver(I) nitrate phosphine complexes under evaluation decreased the cancer cell viability to a large extent compared to DMSO except complex (9).
SNO-oesophageal cancer cells were a gift from the University of Pretoria, RSA. […]

Caspase-3/7 = experiment: Caspase-Glo 3/7 assay in SNO-oesophageal cancer cells; format: cell-based; settings: 100 μM, 24 hours treatment
Procedure: The Caspase-Glo®3/7 assay was used to confirm that the structural changes observed are due to apoptotic cell death. In this luminescent based assay, a 1:1 ratio of the Caspase-Glo® reagent was added to treated cells into a microtiter plate. The plate was gently agitated for 30 seconds and incubated for 30 minutes at room temperature. The whole luminescent intensity was measured using a Synergy HT Multi-Detection Microplate reader, where the intensity of the luminescence is proportional to the Caspase-3/7 concentration.
The error bars where constructed based on the standard error of the mean (SEM) where n=6. The significant difference were calculated with respect to the vehicle control (P<**0.001). A relative increase in expression was observed throughout.

[2] = system: A375 malignant melanoma cancer cells; experiment: AlamarBlue viability and proliferation assay of A375 malignant melanoma cancer cells; format: cell-based, human; settings: concentration range 1.0 μM-10.0 μM, viability as percentage of 1.0% DMSO vehicle control, quadratic equation
Procedure: A375 melanoma cancer cells originate from an immortal cell line from human malignant melanoma from skin (ATCC no CRL-1619).
A375 malignant melanoma cancer cells were cultured in Dulbecco's Modified Eagle's Medium (DMEM), 13.53 g/L with sodium bicarbonate (NaHCO3), 3.7 g/L supplemented with 10% fetal bovine serum (FBS), and 1% Penicillin/Streptomycin/Fungizone in 75 cm^3 sterile culture flasks. Cells were incubated at 37° C. with 5% CO2 in a humidified atmosphere and were subcultured twice a week. Cells were subcultured every 48 hours and used between Passages 3 and 7. […]
An AlamarBlue® (Serotec, UK) assay was done to investigate the proliferation capabilities of the differentially treated cells. AlamarBlue® dye (10%) was incubated with trypsinized cells over a 2-hour period before the fluorescence was measured with a Synergy HT Multi-Detection Microplate reader (BioTek, Winooski, Vt.) at wavelengths of 530 nm and (excitation) and 590 nm (emission). […]
Treatment volumes were 1.0 μL of 1-10 μM range of stock solutions. Fluorescence was measured with 530 nm excitation wavelength and 590 nm emission wavelength. FIG. 21 represents 3 biological repeats measured in triplicate. DMEM reference blanks were averaged and subtracted from all readings and cellular viability values were calculated as percentage of the 1.0% DMSO vehicle control (VC). […]

[3] = system: A375 malignant melanoma cancer cells; experiment: Celltitre-Glo Luminescent Cell Viability Assay (ATP) in A375 cells; format: cell-based, human; settings: 10 µM
Procedure: (§1) For purposes of the Celltitre-Glo™ Luminescent Cell Viability [Promega, USA] assay, a 1:1 mixture of cell sample to Celltitre-Glo™ substrate/buffer mix reagent, in duplicate, was added to 96-well black plate, shaken for 30 seconds at room temperature and then further incubated for 30 minutes. Whole luminescence was then measured with a Synergy HT Multi-Detection Microplate Reader. The CytoTox-ONE™ Homogenous Membrane Integrity [Promega, USA] assay is a rapid fluorescent assay that measures the level of lactate dehydrogenase leaked from damaged membranes, therefore, the amount of fluorescence measured is directly proportional to the amount of lysed/damaged cells. In triplicate, a 1:1 cell sample to CytoTox-ONE™ substrate/buffer mix reagent was added to a 96-well clear plate, shaken for 30 seconds followed by incubation for 10 minutes. A CytoTox-ONE™ stop solution was added to each sample followed by a further 30 second shake on an orbital shaker. […] The fluorescence was then measured with a Synergy HT Multi-Detection Microplate Reader at an excitation wavelength of 530 nm and emission wavelength of 590 nm. FIG. 25 depicts the percentage ATP and Lactate Dehydrogenase (LDH) measured in differentially treated A375 malignant melanoma cancer cells as determined by the Celltitre-Glo™ Luminescent Cell Viability Assay and CytoTox-ONE™ Membrane Integrity Assay respectively. […]

[4] = system: A375 malignant melanoma cancer cells; experiment: CytoTox-ONE Membrane Integrity Assay (LDH) in A375 cells; format: cell-based, human; settings: 10 µM
Procedure: as §1

Caspase 3/7 = experiment: Caspase-GLO 3/7 assay in A375 cells; format: cell-based, human; settings: 10 μM, 24 hour treatments
From the text: Caspase-GLO™ 3/7, 8 and 9 Assays are luminescent assays that measure Caspase activities, which have key effector functions in intrinsic and extrinsic apoptosis, therefore the amount of luminescence measured is proportional to the amount of Caspase activity present. The assays are based on the principle that after Caspase cleavage, a substrate containing the tetrapeptide DEVD sequence binds with Caspase and is released for a luminescent reaction with a thermostable luciferase enzyme. In duplicate, a 1:1 cell sample to Caspase-Glo™ substrate/buffer mix reagent was added into 96-well black plates, then shaken for 30 seconds at room temperature followed by a 1 hour incubation. Whole luminescence was then measured with a Synergy HT Multi-Detection Microplate Reader.
FIG. 26 depicts Caspase 3/7, 8 and 9 levels in differentially treated A375 malignant melanoma cancer cells as determined by relative luminescence recorded using Caspase-GLO™ assays. Caspase levels represented as a percentage of 1.0% DMSO Vehicle Control (VC) set at 100%. Cells treated with: CDDP=100 μM Cisplatin Positive Apoptotic Control and then 10 μM concentrations of complex (13) and complex (14). […]

| SMILES | cells killed [1] | Caspase induction (Caspase-3/7) | IC50 [2] | ATP levels (cellular viability) [3] | LDH levels compared to the VC [4] | Caspase 3/7 levels compared to the VC (Caspase 3/7) |
| --- | --- | --- | --- | --- | --- | --- |
| N.N.[Cl][Pt][Cl] [Cisplatin, reference compound] | ~74% | 2 fold increase | – | – | – | – |
| [Br][Ag]([PH](c1ccccc1)(c1ccccc1)c1ccccc1)([PH](c1ccccc1)(c1ccccc1)c1ccccc1)[PH](c1ccccc1)(c1ccccc1)c1ccccc1 [complex (13), AgBr(PPh3)3] | – | – | 5.16 µM | less than 20% | significant increase | increased |
| O=[N+]([O-])[O-].[Ag+].c1ccc(P(c2ccccc2)c2ccccc2)cc1.c1ccc(P(c2ccccc2)c2ccccc2)cc1.c1ccc(P(c2ccccc2)c2ccccc2)cc1 [complex (14), AgNO3(PPh3)3] | – | – | 6.77 µM | – | significant increase | increased |
